Reference: US20200017496A1 (priority 2017, published 2020)
Where two headings read alike, the source gives them in different places.

Assays:
Experiment in all cases: MIC of compounds alone and combined with antibacterials, broth microdilution (CLSI)
Format in all cases: cell-based
[1] = test system: Klebsiella pneumoniae (KPN) isolates; conditions: for MIC ATB in combination: AF1 @ 4 μg/mL; for MIC: Klebsiella pneumoniae
Summary of the method: (§1)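 Compound MIC, and antibacterial MIC at each fixed compound level, taken by visual inspection as lowest concentration stopping growth. Inoculum: log-phase bacteria, final 5·10^5 CFU/mL, cation-adjusted Mueller-Hinton broth; 16-20 h, 35° C, ambient air.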

[2] = test system: Serratia marcescens (SMA) isolates; conditions: for MIC: Serratia marcescens
Summary of the method: as §1

[3] = test system: Morganella morganii (MMO) isolates; conditions: for MIC ATB in combination: AF1 @ 4 μg/mL; for MIC: Morganella morganii, ATB alone
Summary of the method: as §1

[4] = test system: Klebsiella oxytoca (KOX) isolates; conditions: for MIC ATB in combination: AF1 @ 4 μg/mL; for MIC: Klebsiella oxytoca, ATB alone
Summary of the method: as §1

CO/N=C(\C(=O)N[C@@H]1C(=O)N2C(C(=O)O)=C(COC(N)=O)CS[C@H]12)c1ccco1 [FUR, Cefuroxime]
MIC ATB in combination ([1]; KPN 6299): 16 µg/mL
MIC ATB in combination ([1]; KPN 110376): 4 µg/mL
MIC ATB in combination ([1]; KPN 131119): 8 µg/mL
MIC ATB in combination ([1]; KPN 140513): 32 µg/mL
MIC ATB in combination ([1]; KPN 160143): 4 µg/mL
MIC ATB in combination ([1]; KPN 190128): 16 µg/mL
MIC ATB in combination ([1]; KPN 190270): 16 µg/mL
MIC ATB in combination ([1]; KPN 190425): 4 µg/mL
MIC ATB in combination ([1]; KPN 190551): 4 µg/mL
MIC ATB in combination ([1]; KPN 200047): 2 µg/mL
MIC ATB in combination ([1]; KPN 200327): 2 µg/mL
MIC ATB in combination ([1]; KPN 260251): 8 µg/mL
MIC ATB in combination ([1]; KPN 260252): 32 µg/mL
MIC ATB in combination ([1]; KPN 260376): 2 µg/mL
MIC ATB in combination ([1]; KPN 270077): 16 µg/mL
MIC ATB in combination ([1]; KPN 700603): 16 µg/mL
MIC ATB in combination ([1]; KPN ARA): 16 µg/mL
MIC ATB in combination ([1]; KPN BAA-1898): 4 µg/mL
MIC ATB in combination ([1]; KPN LIB): 8 µg/mL
MIC ATB in combination ([1]; KPN UFR22_O): 8 µg/mL
MIC ATB in combination ([1]; KPN UFR23): 4 µg/mL
MIC ATB in combination ([1]; KPN UFR24): 16 µg/mL
MIC ATB in combination ([1]; KPN UFR25): 4 µg/mL
MIC ATB in combination ([1]; KPN UFR27): 32 µg/mL
MIC ATB in combination ([1]; KPN UFR28): 4 µg/mL
MIC ATB in combination ([1]; KPN UFR65): 16 µg/mL
MIC ATB in combination ([1]; KPN UFR66): 32 µg/mL
MIC ATB in combination ([1]; KPN UFR67): 32 µg/mL
MIC ATB in combination ([1]; KPN UFR68): 8 µg/mL
MIC ATB in combination ([1]; KPN UFR76): >128 µg/mL
MIC ATB in combination ([1]; KPN UFR77): 32 µg/mL
MIC ATB in combination ([1]; KPN UFR78): >128 µg/mL
MIC ATB in combination ([1]; KPN UFR79): 32 µg/mL
MIC ATB in combination ([1]; KPN UFR80): 16 µg/mL
MIC ATB in combination ([1]; KPN UFR81): 32 µg/mL
MIC ATB in combination ([1]; KPN UFR215): 16 µg/mL
MIC ATB in combination ([1]; KPN UFR216): 4 µg/mL
MIC ATB in combination ([1]; KPN UFR217): 2 µg/mL
MIC ATB in combination ([1]; KPN UFR219): 8 µg/mL
MIC ATB in combination ([1]; KPN UFR220): 16 µg/mL
MIC ATB in combination ([1]; KPN UFR221): 4 µg/mL
MIC ATB in combination ([1]; KPN UFR222): 64 µg/mL
MIC ATB in combination ([1]; KPN UFR227O): 64 µg/mL
MIC [1]: > 256 µg/mL
MIC ([1]; BAA1898, strain KPN BAA-1898 (TEM-1, SHV-11, SHV-12, KPC-2), ATB alone, read-out: MIC): > 512 µg/mL
MIC ([1]; strain KPN 6299 (TEM-1, SHV-11, OXA-163), ATB alone, read-out: MIC): > 512 µg/mL
MIC ([1]; strain KPN 700603 (SHV-18, OXA-2), ATB alone, read-out: MIC): 32 µg/mL
MIC ([1]; strain KPN LIB (SHV-11, OXA-48), ATB alone, read-out: MIC): 16 µg/mL
MIC ([1]; strain KPN UFR22_O (TEM-1, SHV-1, OXA-48), ATB alone, read-out: MIC): 32 µg/mL
MIC ([1]; strain KPN UFR23 (TEM-1, SHV-1, OXA-48), ATB alone, read-out: MIC): 8 µg/mL
MIC ([1]; strain KPN UFR24 (TEM-1, SHV-2, SHV-11, OXA-1, OXA-48, OXA-47), ATB alone, read-out: MIC): 128 µg/mL
MIC ([1]; strain KPN UFR77 (CMY-2), ATB alone, read-out: MIC): 64 µg/mL
MIC ([1]; strain KPN UFR80 (SHV-11, DHA-1, OXA-1), ATB alone, read-out: MIC): 32 µg/mL
MIC ATB in combination ([2]; SMA UFR30, AF1 @ 4 μg/mL): 64 µg/mL
MIC ATB in combination ([2]; SMA UFR134, AF1 @ 4 μg/mL): 64 µg/mL
MIC ATB in combination ([2]; SMA UFR135, AF1 @ 4 μg/mL): >128 µg/mL
MIC ATB in combination ([2]; SMA UFR136, AF1 @ 4 μg/mL): >128 µg/mL
MIC ATB in combination ([2]; SMA UFR137, AF1 @ 4 μg/mL): 32 µg/mL
MIC ATB in combination ([2]; SMA UFR138, AF1 @ 4 μg/mL): 64 µg/mL
MIC ATB in combination ([2]; SMA UFR139, AF1 @ 4 μg/mL): 64 µg/mL
MIC ATB in combination ([2]; SMA UFR141, AF1 @ 4 μg/mL): 128 µg/mL
MIC ATB in combination ([2]; SMA UFR142, AF1 @ 4 μg/mL): 64 µg/mL
MIC ATB in combination ([2]; SMA UFR143, AF1 @ 4 μg/mL): 32 µg/mL
MIC ATB in combination ([2]; SMA UFR239, AF1 @ 4 μg/mL): >128 µg/mL
MIC [2]: > 256 µg/mL
MIC ([2]; ATB alone, strain SMA UFR238 (OXA-48), read-out: MIC): > 256 µg/mL
MIC ([2]; strain SMA UFR30 (OXA-405), ATB alone, read-out: MIC): > 256 µg/mL
MIC ([2]; strain SMA UFR134 (TEM-1, BES-1), ATB alone, read-out: MIC): > 256 µg/mL
MIC ([2]; strain SMA UFR137 (SME-1), ATB alone, read-out: MIC): 256 µg/mL
MIC ([2]; strain SMA UFR138 (SME-1), ATB alone, read-out: MIC): 256 µg/mL
MIC ([2]; strain SMA UFR139 (SME-2), ATB alone, read-out: MIC): > 256 µg/mL
MIC ([2]; strain SMA UFR141 (OXA-48), ATB alone, read-out: MIC): > 256 µg/mL
MIC ([2]; strain SMA UFR142 (OXA-48), ATB alone, read-out: MIC): > 256 µg/mL
MIC ([2]; strain SMA UFR143 (CTX-M-15, OXA-1, OXA-48), ATB alone, read-out: MIC): > 256 µg/mL
MIC ([2]; strain SMA UFR239 (ESAC), ATB alone, read-out: MIC): 256 µg/mL
MIC ATB in combination ([2]; strain SMA UFR238, antibacterial combined with AF1 @ 4 μg/mL): 64 µg/mL
MIC ATB in combination ([3]; MMO 200321): 128 µg/mL
MIC ATB in combination ([3]; MMO UFR144): 32 µg/mL
MIC ATB in combination ([3]; MMO UFR240): 16 µg/mL
MIC ATB in combination ([3]; MMO UFR241): 32 µg/mL
MIC ATB in combination ([3]; MMO UFR242): 32 µg/mL
MIC ATB in combination ([3]; MMO UFR243): 32 µg/mL
MIC ATB in combination ([3]; MMO UFR244): 16 µg/mL
MIC ATB in combination ([3]; MMO UFR245): 32 µg/mL
MIC ATB in combination ([3]; MMO UFR246): 64 µg/mL
MIC ATB in combination ([3]; MMO UFR247): 16 µg/mL
MIC ([3]; strain MMO 200321 (TEM-1, CTX-M-15, OXA-1)): > 256 µg/mL
MIC ([3]; strain MMO UFR144 (TEM-1, CTX-M-15)): > 256 µg/mL
MIC ([3]; strain MMO UFR240 (CTX-M-9)): > 256 µg/mL
MIC ([3]; strain MMO UFR241 (TEM-1, CTX-M-15)): > 256 µg/mL
MIC ([3]; strain MMO UFR242 (TEM-52)): > 256 µg/mL
MIC ([3]; strain MMO UFR243 (DHA-1), read-out: MIC): 128 µg/mL
MIC ([3]; strain MMO UFR244 (DHA-1), read-out: MIC): 64 µg/mL
MIC ([3]; strain MMO UFR245 (DHA-1), read-out: MIC): 128 µg/mL
MIC ([3]; strain MMO UFR246 (DHA-1), read-out: MIC): 128 µg/mL
MIC ([3]; strain MMO UFR247 (DHA-1), read-out: MIC): > 256 µg/mL
MIC ATB in combination ([4]; KOX UFR21): 16 µg/mL
MIC ATB in combination ([4]; KOX UFR173): 4 µg/mL
MIC ATB in combination ([4]; KOX UFR223): 2 µg/mL
MIC ATB in combination ([4]; KOX UFR224): 2 µg/mL
MIC ([4]; strain KOX UFR21 (TEM-1, CTX-M-15, OXA-48)): > 256 µg/mL
MIC ([4]; strain KOX UFR173 (OXY2-2), read-out: MIC): > 256 µg/mL
MIC ([4]; strain KOX UFR223 (SHV-11, OXA-48), read-out: MIC): 8 µg/mL
MIC ([4]; strain KOX UFR224 (CTX-M-15, OXA-48)): > 256 µg/mL
